Results from ChEMBL document CHEMBL3407435, “N-Methyl-N-((1-methyl-5-(3-(1-(2-methylbenzyl)piperidin-4-yl)propoxy)-1H-indol-2-yl)methyl)prop-2-yn-1-amine, a new cholinesterase and monoamine oxidase dual inhibitor” (J Med Chem, 2014).
Active and inactive are the calls of the source. The calls are words filed in the database; no cut-off is given here.

Columns and labels:
[1] = target: T1, Amine oxidase [flavin-containing] B (Homo sapiens, UniProt P27338); assay: Inhibition of human MAO-B expressed in baculovirus infected BTI insect cells preincubated for 15 mins; type: cell-based
T1 sequence (P27338 whole entry): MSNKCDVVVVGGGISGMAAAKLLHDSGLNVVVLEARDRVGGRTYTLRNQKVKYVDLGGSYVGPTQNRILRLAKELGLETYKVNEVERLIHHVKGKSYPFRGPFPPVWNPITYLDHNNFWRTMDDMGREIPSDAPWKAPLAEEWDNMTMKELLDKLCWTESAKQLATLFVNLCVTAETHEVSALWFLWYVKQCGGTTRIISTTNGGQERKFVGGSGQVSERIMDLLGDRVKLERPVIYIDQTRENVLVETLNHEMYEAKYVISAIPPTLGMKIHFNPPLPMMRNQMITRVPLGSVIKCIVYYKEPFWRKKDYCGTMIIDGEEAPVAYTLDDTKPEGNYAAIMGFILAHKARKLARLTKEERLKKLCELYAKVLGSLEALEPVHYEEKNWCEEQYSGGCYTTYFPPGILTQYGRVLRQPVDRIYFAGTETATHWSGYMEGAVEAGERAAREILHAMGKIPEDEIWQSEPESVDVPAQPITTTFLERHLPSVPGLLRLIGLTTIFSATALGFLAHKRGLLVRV

[2] = target: T2, Amine oxidase [flavin-containing] A (Homo sapiens, UniProt P21397); assay: Inhibition of human MAO-A expressed in baculovirus infected BTI insect cells preincubated for 15 mins
T2 sequence (P21397 whole entry): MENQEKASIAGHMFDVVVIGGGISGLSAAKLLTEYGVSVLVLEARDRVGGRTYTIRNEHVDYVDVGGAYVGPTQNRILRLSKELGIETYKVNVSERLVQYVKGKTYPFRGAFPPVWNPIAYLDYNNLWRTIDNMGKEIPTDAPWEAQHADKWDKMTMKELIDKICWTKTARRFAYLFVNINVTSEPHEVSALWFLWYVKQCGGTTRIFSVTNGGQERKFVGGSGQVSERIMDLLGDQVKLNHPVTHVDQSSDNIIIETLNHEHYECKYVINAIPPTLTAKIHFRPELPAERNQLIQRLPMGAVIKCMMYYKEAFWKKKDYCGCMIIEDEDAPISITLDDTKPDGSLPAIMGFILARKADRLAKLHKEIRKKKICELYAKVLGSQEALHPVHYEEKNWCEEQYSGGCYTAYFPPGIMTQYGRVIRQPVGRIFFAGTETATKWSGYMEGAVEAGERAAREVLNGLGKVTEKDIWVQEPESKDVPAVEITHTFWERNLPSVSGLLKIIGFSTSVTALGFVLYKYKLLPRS

Acetylcholinesterase [3] = target: T3, Acetylcholinesterase (Homo sapiens, UniProt P22303); assay: Inhibition of recombinant human AChE expressed in HEK293 cells preincubated for 15 mins; type: cell-based
Homo sapiens = organism: Homo sapiens; assay: Selectivity ratio of IC50 for human MAO-A expressed in baculovirus infected BTI insect cells to IC50 for human MAO-B expressed in baculovirus infected BTI insect cells
HEK293 = assay: Selectivity ratio of IC50 for recombinant human AChE expressed in HEK293 cells to IC50 for recombinant human BuChE expressed in HEK293 cells; type: cell-based
Cholinesterase [4] = target: T4, Cholinesterase (Homo sapiens, UniProt P06276); assay: Inhibition of recombinant human BuChE expressed in HEK293 cells preincubated for 15 mins; type: cell-based
Cholinesterase [5] = target: T4, Cholinesterase; assay: Inhibition of recombinant human BuChE expressed in HEK293 cells assessed as enzyme recovery compound incubated at 10 times IC50 for 30 mins followed by 100 fold dilution relative to control; type: cell-based; set-up: scale not given: the % may be the effect or the level left
[6] = target: T2, Amine oxidase [flavin-containing] A; assay: Reversible inhibition of human MAO-A expressed in baculovirus infected BTI insect cells
[7] = target: T1, Amine oxidase [flavin-containing] B; assay: Irreversible inhibition of human MAO-B expressed in baculovirus infected BTI insect cells compound incubated at 10 times IC50 for 30 mins followed by 100 fold dilution relative to control; conditions: 0.5 h
[8] = Permeability of the compound by PAMPA-BBB method in presence of PBS:ethanol at 70:30 ratio; type: ADME; conditions: read-out: permeability
Acetylcholinesterase [9] = target: T3, Acetylcholinesterase; assay: Inhibition of recombinant human AChE expressed in HEK293 cells assessed as enzyme recovery compound incubated at 10 times IC50 for 30 mins followed by 100 fold dilution relative to control; type: cell-based; set-up: scale not given: the % may be the effect or the level left
[10] = target: T2, Amine oxidase [flavin-containing] A; assay: Irreversible inhibition of human MAO-A expressed in baculovirus infected BTI insect cells compound incubated at 10 times IC50 for 30 mins followed by 100 fold dilution relative to control; conditions: 0.5 h
Acetylcholinesterase [11] = target: T3, Acetylcholinesterase; assay: Inhibition of recombinant human AChE expressed in HEK293 cells preincubated at 100 uM for 15 mins; type: cell-based
Cholinesterase [12] = target: T4, Cholinesterase; assay: Inhibition of recombinant human BuChE expressed in HEK293 cells preincubated at 100 uM for 15 mins; type: cell-based
[13] = target: T2, Amine oxidase [flavin-containing] A; assay: Inhibition of human MAO-A expressed in baculovirus infected BTI insect cells preincubated at 100 uM for 15 mins
[14] = target: T1, Amine oxidase [flavin-containing] B; assay: Inhibition of human MAO-B expressed in baculovirus infected BTI insect cells preincubated at 100 uM for 15 mins

T4 sequence (P06276 whole entry): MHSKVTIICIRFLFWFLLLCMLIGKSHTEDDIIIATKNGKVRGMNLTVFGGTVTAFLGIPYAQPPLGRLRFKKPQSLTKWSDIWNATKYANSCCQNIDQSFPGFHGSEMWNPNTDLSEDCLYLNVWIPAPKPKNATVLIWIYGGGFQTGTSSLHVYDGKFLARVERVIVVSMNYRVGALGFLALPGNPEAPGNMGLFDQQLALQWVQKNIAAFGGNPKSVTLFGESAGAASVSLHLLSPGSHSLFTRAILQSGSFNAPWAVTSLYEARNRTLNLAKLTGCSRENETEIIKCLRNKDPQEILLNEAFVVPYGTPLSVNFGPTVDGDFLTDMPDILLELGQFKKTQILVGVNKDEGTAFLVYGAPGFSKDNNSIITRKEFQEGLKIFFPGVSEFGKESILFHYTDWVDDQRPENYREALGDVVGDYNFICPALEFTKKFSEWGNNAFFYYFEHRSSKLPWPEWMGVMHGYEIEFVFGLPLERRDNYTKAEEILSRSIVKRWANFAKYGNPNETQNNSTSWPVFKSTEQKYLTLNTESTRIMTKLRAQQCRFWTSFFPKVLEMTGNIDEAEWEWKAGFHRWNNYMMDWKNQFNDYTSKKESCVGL
T3 sequence (P22303 whole entry): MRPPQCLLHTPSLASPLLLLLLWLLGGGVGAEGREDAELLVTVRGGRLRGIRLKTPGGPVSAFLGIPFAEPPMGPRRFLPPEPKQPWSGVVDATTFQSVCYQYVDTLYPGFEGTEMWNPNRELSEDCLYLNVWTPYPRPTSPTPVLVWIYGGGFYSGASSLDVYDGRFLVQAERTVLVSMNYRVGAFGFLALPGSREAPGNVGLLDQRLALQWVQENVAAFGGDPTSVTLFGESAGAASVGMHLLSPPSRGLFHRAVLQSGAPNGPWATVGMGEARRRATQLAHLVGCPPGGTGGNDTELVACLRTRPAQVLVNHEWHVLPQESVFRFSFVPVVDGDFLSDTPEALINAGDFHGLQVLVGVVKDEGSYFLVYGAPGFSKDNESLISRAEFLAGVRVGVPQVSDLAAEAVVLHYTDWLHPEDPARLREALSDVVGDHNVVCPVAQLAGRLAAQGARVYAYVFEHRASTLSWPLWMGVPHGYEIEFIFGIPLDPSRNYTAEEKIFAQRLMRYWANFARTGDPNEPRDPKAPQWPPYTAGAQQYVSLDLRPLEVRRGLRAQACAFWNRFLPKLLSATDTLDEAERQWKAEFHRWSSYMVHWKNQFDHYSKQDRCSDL

SMILES	IC50 [1] [µM]	IC50 [2] [µM]	IC50 (Acetylcholinesterase [3]) [µM]	Ratio IC50 (Homo sapiens)	Ratio IC50 (HEK293)	IC50 (Cholinesterase [4]) [µM]	also measured
C#CCNCc1cc2cc(OCCCC3CCN(Cc4ccccc4)CC3)ccc2[nH]1	33.6	19.2	4.9	0.57	0.67	7.3	–
C#CCN(C)Cc1ccc(OC(=O)N(C)C)c2ncccc12	–	–	0.52	–	–	7.9	–
C=CCNCc1cc2cc(OCCCC3CCN(Cc4ccccc4)CC3)ccc2[nH]1	21.3	45.3	4.6	2.1	0.11	40.6	–
C#CCN(C)Cc1cc2cc(OCCCC3CCN(Cc4ccccc4)CC3)ccc2n1C	1.2	0.0582	3.4	0.05	1.03	3.3	–
OCc1cc2cc(OCCCC3CCN(Cc4ccccc4)CC3)ccc2[nH]1	13.5	9.1	13.6	0.67	0.43	31.2	–
C#CCN(C)Cc1cc2cc(OCCCC3CCN(Cc4ccccc4C)CC3)ccc2n1C	0.184	–	2.8	0.03	–	4.9	Activity (Cholinesterase [5]): 20%; IC50 [6]: 6.3 µM; inhibition (INH) [7]: 90%; Papp [8]: 14.4 ×10⁻⁶ cm/s; Activity (Acetylcholinesterase [9]): 20%; inhibition (INH) [10]: 90%
C#CCN(C)Cc1cc2cc(OCc3ccc(OC(=O)N(C)C)c4ncccc34)ccc2n1C	273	311	–	–	–	–	inhibition (Acetylcholinesterase [11]): inactive; inhibition (Cholinesterase [12]): inactive
C#CCN(C)Cc1cc2cc(OCCCC3CCN(Cc4ccc(OC(=O)N(C)C)c5ncccc45)CC3)ccc2n1C	0.196	0.258	8.4	1.3	1.4	5.9	–
C#CCN(C)Cc1cc2cc(OCCCC3CCN(Cc4ccc(OC)c5ncccc45)CC3)ccc2n1C	7.9	10.3	–	–	–	–	inhibition at 100 µM [13]: 40%; inhibition at 100 µM [14]: 40%; inhibition (Cholinesterase [12]): inactive
C#CCN(C)Cc1cc2cc(OCc3ccc(OC)c4ncccc34)ccc2[nH]1	165	630	–	–	–	–	inhibition (Acetylcholinesterase [11]): inactive; inhibition (Cholinesterase [12]): inactive
C#CCNCc1cc2cc(OCc3ccccc3)ccc2[nH]1	0.0041	0.287	–	70	–	–	–
C#CCN(C)Cc1cc2cc(OCCCC3CCN(Cc4ccccc4)CC3)ccc2[nH]1	35.1	9.1	15.4	0.26	2.2	7.1	–
CCOC(=O)c1cc2cc(OCCCC3CCN(Cc4ccccc4)CC3)ccc2[nH]1	1	0.877	9.6	0.87	0.99	9.7	–
